In patent US4374144A, “β-Lactam compounds, their preparation and use” (Beecham Group Limited, priority 1978, dated 1983):
Where two headings read alike, the source gives them in different places.

Experiments:
E. coli 0111 = experiment: MIC, DST agar + 10% horse blood; format: cell-based; conditions: Escherichia coli
Experimental: (§1) The minimum inhibitory concentrations (MIC) of certain compounds of the invention were determined against a range of organisms.
(§2) of 0.001 ml of a 10^-2 dilution for Grampositive bacteria or a
(§3) 10^-4 dilution for Gramnegative bacteria).

Staph. aureus Oxford = experiment: MIC, DST agar + 10% horse blood; format: cell-based; conditions: Staphylococcus aureus
Experimental: as §1, §2, §3

Klebsiella aerogenes A = experiment: MIC, DST agar + 10% horse blood; format: cell-based
Experimental: as §1, §2, §3

E. coli JT39 = experiment: MIC, DST agar + 10% horse blood; format: cell-based; conditions: Escherichia coli
Experimental: as §1, §2, §3

Proteus mirabilis C977 = experiment: MIC, DST agar + 10% horse blood; format: cell-based
Experimental: as §1, §2, §3

Bacillus subtilis A = experiment: MIC, DST agar + 10% horse blood; format: cell-based
Experimental: as §1, §2, §3

[1] = test system: Salmonella typhimurium CT10; experiment: MIC, DST agar + 10% horse blood; format: cell-based; conditions: Salmonella enterica
Experimental: as §1, §2, §3

Shigella sonnei MB11967 = experiment: MIC, DST agar + 10% horse blood; format: cell-based
Experimental: as §1, §2, §3

Staph. aureus Russell = experiment: MIC, DST agar + 10% horse blood; format: cell-based; conditions: Staphylococcus aureus
Experimental: as §1, §2, §3

[2] = test system: Streptococcus pyogenes CN10; experiment: MIC, DST agar + 10% horse blood; format: cell-based
Experimental: as §1, §2, §3

Citrobacter freundii E8 = experiment: MIC, DST agar + 10% horse blood; format: cell-based
Experimental: as §1, §2, §3

[3] = target: T1, β-Lactamase from E. coli JT4 (Escherichia coli, UniProt P62593); experiment: β-Lactamase inhibition, chromogenic cephalosporin substrate; format: biochemical; conditions: 5 min preincubation, pH 7.3, 37° C., read-out: I50 (converted)
T1 construct: β-Lactamase from; endogenous in cells; host or cells: E. coli JT4
Experimental: (§4) I50 values for certain compounds of the invention against various β-lactamases were determined as follows:
(§5) Enzyme (0.2 ml) and inhibitor solution (10 μl) were incubated at pH 7.3, 37° C. for 5 minutes. Substrate (0.2 ml), which was the chromogenic cephalosporin described by O'Callaghan, Morris, Kirby and Shingler, Antimicrobial Agents and Chemotherapy, vol. 1, no. […] After a further five minutes (37° C. at pH 7.3) the reaction was diluted with 1.6 ml of water and absorbance at 482 nm recorded instantly. […] Levels of inhibition were measured against a control reaction with no added inhibitor (10 μl buffer).

[4] = target: β-Lactamase from Klebsiella aerogenes E70; experiment: as above; format: biochemical; conditions: 5 min preincubation, pH 7.3, 37° C.
Experimental: as §4, §5

[5] = target: T2, β-Lactamase from Staphylococcus aureus Russell (Staphylococcus aureus, UniProt P00807); experiment: as above; format: biochemical; conditions: 5 min preincubation, pH 7.3, 37° C., read-out: I50 (converted)
T2 construct: β-Lactamase from; endogenous in cells; host or cells: Staphylococcus aureus Russell
Experimental: as §4
(§6) Enzyme (0.2 ml) and inhibitor solution (10 μl) were incubated at pH 7.3, 37° C. for 5 minutes. Substrate (0.2 ml), which was the chromogenic cephalosporin described by O'Callaghan, Morris, Kirby and Shingler, Antimicrobial Agents and Chemotherapy, vol. 1, no. 4, 283-288 (1972), was added to give a final concentration of 250 μg/ml. After a further five minutes (37° C. at pH 7.3) the reaction was diluted with 1.6 ml of water and absorbance at 482 nm recorded instantly. The enzyme level was sufficient to hydrolyse 75% of the substrate in 5 minutes. Levels of inhibition were measured against a control reaction with no added inhibitor (10 μl buffer). I50 values quoted are the concentrations required to give 50% inhibition of substrate hydrolysis under the conditions described and are the concentrations of inhibitor present with the enzyme prior to the addition of the substrate.

[6] = target: T3, β-Lactamase from Enterobacter cloacae P99 (Enterobacter cloacae, UniProt P05364); experiment: as above; format: biochemical; conditions: 5 min preincubation, pH 7.3, 37° C., read-out: I50 (converted)
T3 construct: β-Lactamase from; endogenous in cells; host or cells: Enterobacter cloacae P99
Experimental: as §4, §6

[7] = E. coli 0111, inoculum 0.001 ml of 10^-4 dilution, read-out: MIC
[8] = E. coli JT39, inoculum 0.001 ml of 10^-4 dilution, read-out: MIC
[9] = Shigella sonnei MB11967, inoculum 0.001 ml of 10^-4 dilution, read-out: MIC
[10] = Staph. aureus Oxford, inoculum 0.001 ml of 10^-2 dilution, read-out: MIC
[11] = Klebsiella aerogenes A, inoculum 0.001 ml of 10^-4 dilution, read-out: MIC
[12] = Proteus mirabilis C977, inoculum 0.001 ml of 10^-4 dilution, read-out: MIC
[13] = Salmonella typhimurium CT10, inoculum 0.001 ml of 10^-4 dilution, read-out: MIC
[14] = Staph. aureus Russell, inoculum 0.001 ml of 10^-2 dilution, read-out: MIC
[15] = Streptococcus pyogenes CN10, inoculum 0.001 ml of 10^-2 dilution, read-out: MIC
[16] = Citrobacter freundii E8, inoculum 0.001 ml of 10^-4 dilution, read-out: MIC

T3 sequence (P05364 21-381): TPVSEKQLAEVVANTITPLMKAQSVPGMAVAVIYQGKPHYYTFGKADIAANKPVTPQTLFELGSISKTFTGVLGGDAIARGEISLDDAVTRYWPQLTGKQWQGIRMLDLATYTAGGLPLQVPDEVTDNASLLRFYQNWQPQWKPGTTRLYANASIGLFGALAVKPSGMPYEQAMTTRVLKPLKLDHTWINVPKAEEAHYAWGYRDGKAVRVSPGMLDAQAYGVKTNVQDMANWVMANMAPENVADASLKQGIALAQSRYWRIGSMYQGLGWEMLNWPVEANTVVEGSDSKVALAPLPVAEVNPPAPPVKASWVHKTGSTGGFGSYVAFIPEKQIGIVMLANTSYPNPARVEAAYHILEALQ
T2 sequence (P00807 25-281): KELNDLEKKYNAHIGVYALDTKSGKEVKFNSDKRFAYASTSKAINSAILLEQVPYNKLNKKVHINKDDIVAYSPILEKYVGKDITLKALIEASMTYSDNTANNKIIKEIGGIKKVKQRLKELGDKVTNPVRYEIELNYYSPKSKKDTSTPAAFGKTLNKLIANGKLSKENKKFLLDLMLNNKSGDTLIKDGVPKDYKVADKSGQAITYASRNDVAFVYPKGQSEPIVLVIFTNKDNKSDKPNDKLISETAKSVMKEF
T1 sequence (P62593 24-286 limits assumed): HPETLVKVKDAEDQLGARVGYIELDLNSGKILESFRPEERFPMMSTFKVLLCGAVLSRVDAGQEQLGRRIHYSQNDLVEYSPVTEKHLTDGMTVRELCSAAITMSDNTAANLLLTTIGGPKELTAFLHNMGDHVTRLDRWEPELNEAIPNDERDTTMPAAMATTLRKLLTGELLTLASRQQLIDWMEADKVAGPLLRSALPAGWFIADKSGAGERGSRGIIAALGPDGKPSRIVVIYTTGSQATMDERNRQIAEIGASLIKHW

| Structure (SMILES) | MIC (E. coli 0111; [7]) [µg/mL] | MIC (Staph. aureus Oxford) [µg/mL] | MIC (Klebsiella aerogenes A; Klebsiella aerogenes) [µg/mL] | MIC (E. coli JT39; [8]) [µg/mL] | MIC (Proteus mirabilis C977; Proteus mirabilis, C977) [µg/mL] | MIC (Bacillus subtilis A; Bacillus subtilis) [µg/mL] | MIC ([1]; TYPHIMURIUM) [µg/mL] | MIC (Shigella sonnei MB11967; [9]) [µg/mL] | MIC (Staph. aureus Russell) [µg/mL] | MIC ([2]; Streptococcus pyogenes, CN10) [µg/mL] | MIC (Citrobacter freundii E8; Citrobacter freundii, E8) [µg/mL] | IC50 [5] [nM] | IC50 [6] [nM] | MIC (Staph. aureus Oxford; [10]) [µg/mL] | MIC (Klebsiella aerogenes A; [11]) [µg/mL] | MIC (Proteus mirabilis C977; [12]) [µg/mL] | MIC [1, 13] [µg/mL] | MIC (Staph. aureus Russell; [14]) [µg/mL] | MIC [2, 15] [µg/mL] | MIC (Citrobacter freundii E8; [16]) [µg/mL] | further results |
| --- | --- | --- | --- | --- | --- | --- | --- | --- | --- | --- | --- | --- | --- | --- | --- | --- | --- | --- | --- | --- | --- |
| CC(=O)N/C=C\SC1=C(C(=O)[O-])N2C(=O)[C@@H]([C@H](C)O)[C@H]2C1.[Na+] [Example 5, Sodium (5R, 6R)-3-[(Z)-2-acetamidoethenylthio]-6-[(S)-1-hydroxyethyl]-7-oxo-1-azabicyclo[3.2.0]hept-2-ene-2-carboxylate] | 1 | 0.2 | 1 | 10 | 1 | 0.1 | 1 | 1 | 0.5 | ≤ 0.02 | 1 |  |  |  |  |  |  |  |  |  |  |
| CC(=O)N/C=C\SC1=C(C(=O)[O-])N2C(=O)[C@H]([C@H](C)O)[C@H]2C1.[Na+] |  | 0.5 | 5 |  | 25 | 5 | 5 |  | 0.5 | 0.5 | 2.5 | ~8970 | 17.9 |  |  |  |  |  |  |  | MIC (E. coli 0111; 0111): 5 µg/mL; MIC (E. coli JT39; JT39): 10 µg/mL; MIC (Shigella sonnei MB11967; Shigella sonnei, MB11967): 10 µg/mL; IC50 [3]: 150 nM; I50 [4]: 0.1 µg/mL |
| CC(=O)N/C=C\SC1=C(C(=O)OCc2ccc([N+](=O)[O-])cc2)N2C(=O)[C@H]([C@H](C)O)[C@H]2C1 [Example 2, p-Nitrobenzyl (5R, 6S)-3-[(Z)-2-acetamidoethenylthio]-6-[(S)-1-hydroxyethyl]-7-oxo-1-azabicyclo[3.2.0]hept-2-ene-2-carboxylate] | 2.5 |  |  | > 50 |  | 0.5 |  | 2.5 |  |  |  |  |  | 0.5 | 2.5 | 5 | 2.5 | 1.2 | ≤ 0.1 | 5 |  |
| CC(=O)N/C=C\SC1=C(C(=O)O)N2C(=O)[C@@H]([C@H](C)OS(=O)(=O)O)[C@H]2C1 [Example 8, Disodium (5R, 6R)-3-[(Z)-2-acetamidoethenylthio]-6-[(S)-1-sulphatoethyl]-7-oxo-1-azabcicyclo[3.2.0]hept-2-ene-2-carboxylate] | 1.2 |  |  | 2.5 |  |  |  | 1.2 |  |  |  | 637 | 7.65 | 1.2 | 0.5 | 1.2 | 1.2 | 1.2 | 0.2 | 1.2 | MIC (Bacillus subtilis A; Bacillus subtilis A, inoculum 0.001 ml of 10^-2 dilution, read-out: MIC): 1.2 µg/mL |
